Experimental data: patent US12077503B2, “Substituted cyclic amides and their use as herbicides” (FMC CORPORATION, priority 2015, dated 2024)

Tests used:
Format in all cases: in vivo
[1] = test system: Kochia (Kochia scoparia); test: Test A preemergence; details: Preemergence; for Plant response rating, Kochia: 125 g ai/ha, visual injury after approximately 10 d, 0 to 100 scale where 0 is no effect and 100 is complete control; for Kochia plant response rating (0 to 100 scale, 0 is no effect, 100 is complete control): 500 g ai/ha, visual injury approx. 10 d
Description: (§1) Seeds of plant species selected from barnyardgrass (Echinochloa crus-galli), Kochia (Kochia scoparia), ragweed (common ragweed, Ambrosia elatior), ryegrass, Italian (Italian ryegrass, Lolium multiflorum), crabgrass, large (Digitaria sanguinalis), giant foxtail (Setaria faberii), green foxtail (Setaria viridis), morningglory (Ipomoea spp.), pigweed (Amaranthus retroflexus), velvetleaf (Abutilon theophrasti), wheat (Triticum aestivum), and corn (Zea mays) were planted into a blend of loam soil and sand and treated preemergence with a directed soil spray using test chemicals formulated in anon-phytotoxic solvent mixture which included a surfactant.
(§2) At the same time, plants selected from these crop and weed species and also blackgrass (Alopecurus myosuroides), and Galium (catchweed bedstraw, Galium aparine) were planted in pots containing the same blend of loam soil and sand and treated with postemergence applications of test chemicals formulated in the same manner. Plants ranged in height from 2 to 10 cm and were in the one- to two-leaf stage for the postemergence treatment. Treated plants and untreated controls were maintained in a greenhouse for approximately 10 d, after which time all treated plants were compared to untreated controls and visually evaluated for injury. Plant response ratings, summarized in Table A, are based on a 0 to 100 scale where 0 is no effect and 100 is complete control. A dash (-) response means no test result.

[2] = test system: barnyardgrass (Echinochloa crus-galli); test: Test A preemergence; details: Preemergence; for Plant response rating, Barnyardgrass: 125 g ai/ha, visual injury after approximately 10 d, 0 to 100 scale where 0 is no effect and 100 is complete control; for Barnyardgrass plant response rating (0 to 100 scale, 0 is no effect, 100 is complete control): 500 g ai/ha, visual injury approx. 10 d
Description: as §1, §2

[3] = test system: giant foxtail (Setaria faberii); test: Test A preemergence; details: Preemergence; for Plant response rating, Foxtail, Giant: 125 g ai/ha, visual injury after approximately 10 d, 0 to 100 scale where 0 is no effect and 100 is complete control; for Foxtail, Giant plant response rating (0 to 100 scale, 0 is no effect, 100 is complete control): 500 g ai/ha, visual injury approx. 10 d
Description: as §1, §2

[4] = test system: pigweed (Amaranthus retroflexus); test: Test A preemergence; details: Preemergence; for Plant response rating, Pigweed: 125 g ai/ha, visual injury after approximately 10 d, 0 to 100 scale where 0 is no effect and 100 is complete control; for Pigweed plant response rating (0 to 100 scale, 0 is no effect, 100 is complete control): 500 g ai/ha, visual injury approx. 10 d
Description: as §1, §2

[5] = test system: ragweed (common ragweed, Ambrosia elatior); test: Test A preemergence; details: Preemergence; for Plant response rating, Ragweed: 125 g ai/ha, visual injury after approximately 10 d, 0 to 100 scale where 0 is no effect and 100 is complete control; for Ragweed plant response rating (0 to 100 scale, 0 is no effect, 100 is complete control): 500 g ai/ha, visual injury approx. 10 d
Description: as §1, §2

[6] = test system: ryegrass, Italian (Italian ryegrass, Lolium multiflorum); test: Test A preemergence; details: Preemergence; for Plant response rating, Ryegrass, Italian: 125 g ai/ha, visual injury after approximately 10 d, 0 to 100 scale where 0 is no effect and 100 is complete control; for Ryegrass, Italian plant response rating (0 to 100 scale, 0 is no effect, 100 is complete control): 500 g ai/ha, visual injury approx. 10 d
Description: as §1, §2

[7] = test system: Galium (catchweed bedstraw, Galium aparine); test: Test A postemergence
Description: as §1, §2

[8] = test system: Kochia (Kochia scoparia); test: Test A postemergence
Description: as §1, §2

[9] = test system: barnyardgrass (Echinochloa crus-galli); test: Test A postemergence
Description: as §1, §2

[10] = test system: blackgrass (Alopecurus myosuroides); test: Test A postemergence
Description: as §1, §2

[11] = test system: corn (Zea mays); test: Test A postemergence
Description: as §1, §2

[12] = test system: giant foxtail (Setaria faberii); test: Test A postemergence
Description: as §1, §2

[13] = test system: pigweed (Amaranthus retroflexus); test: Test A postemergence
Description: as §1, §2

[14] = test system: ragweed (common ragweed, Ambrosia elatior); test: Test A postemergence
Description: as §1, §2

[15] = test system: ryegrass, Italian (Italian ryegrass, Lolium multiflorum); test: Test A postemergence
Description: as §1, §2

[16] = test system: wheat (Triticum aestivum); test: Test A postemergence
Description: as §1, §2

[17] = 125 g ai/ha, postemergence, visual rating after approx. 10 d, 0 to 100 scale (0 no effect, 100 complete control)
[18] = Postemergence, 500 g ai/ha, 0 to 100 scale where 0 is no effect and 100 is complete control

Structure (SMILES): CCc1cccc(C2CN(C)C(=O)C2C(=O)Nc2cccc(F)c2F)c1 (stereo not drawn) [Compound 568]
- Plant response rating, Kochia [1]: 70
- Kochia plant response rating (0 to 100 scale, 0 is no effect, 100 is complete control) [1]: 80
- Plant response rating, Barnyardgrass [2]: 90
- Barnyardgrass plant response rating (0 to 100 scale, 0 is no effect, 100 is complete control) [2]: 100
- Plant response rating, Foxtail, Giant [3]: 100
- Foxtail, Giant plant response rating (0 to 100 scale, 0 is no effect, 100 is complete control) [3]: 100
- Plant response rating, Pigweed [4]: 30
- Pigweed plant response rating (0 to 100 scale, 0 is no effect, 100 is complete control) [4]: 60
- Plant response rating, Ragweed [5]: 20
- Ragweed plant response rating (0 to 100 scale, 0 is no effect, 100 is complete control) [5]: 50
- Plant response rating, Ryegrass, Italian [6]: 70
- Ryegrass, Italian plant response rating (0 to 100 scale, 0 is no effect, 100 is complete control) [6]: 100
- Plant response rating, Galium [7, 17]: 60
- Plant response rating, Galium [7, 18]: 60
- Plant response rating, Kochia [8, 17]: 70
- Plant response rating, Kochia [8, 18]: 70
- Plant response rating, Barnyardgrass [9, 17]: 100
- Plant response rating, Barnyardgrass [9, 18]: 100
- Plant response rating, Blackgrass [10, 17]: 60
- Plant response rating, Blackgrass [10, 18]: 90
- Plant response rating, Corn [11, 17]: 60
- Plant response rating, Corn [11, 18]: 90
- Plant response rating, Foxtail, Giant [12, 17]: 90
- Plant response rating, Foxtail, Giant [12, 18]: 90
- Plant response rating, Pigweed [13, 17]: 30
- Plant response rating, Pigweed [13, 18]: 60
- Plant response rating, Ragweed [14, 17]: 30
- Plant response rating, Ragweed [14, 18]: 30
- Plant response rating, Ryegrass, Italian [15, 17]: 70
- Plant response rating, Ryegrass, Italian [15, 18]: 90
- Plant response rating, Wheat [16, 17]: 30
- Plant response rating, Wheat [16, 18]: 70

Structure (SMILES): CCc1cccc(C2CN(C)C(=O)C2C(=O)Nc2ccccc2S(C)(=O)=O)c1 (stereo not drawn) [Compound 569]
- Plant response rating, Kochia [1]: 60
- Kochia plant response rating (0 to 100 scale, 0 is no effect, 100 is complete control) [1]: 90
- Plant response rating, Barnyardgrass [2]: 90
- Barnyardgrass plant response rating (0 to 100 scale, 0 is no effect, 100 is complete control) [2]: 100
- Plant response rating, Foxtail, Giant [3]: 100
- Foxtail, Giant plant response rating (0 to 100 scale, 0 is no effect, 100 is complete control) [3]: 100
- Plant response rating, Pigweed [4]: 50
- Pigweed plant response rating (0 to 100 scale, 0 is no effect, 100 is complete control) [4]: 80
- Plant response rating, Ragweed [5]: 60
- Ragweed plant response rating (0 to 100 scale, 0 is no effect, 100 is complete control) [5]: 70
- Plant response rating, Ryegrass, Italian [6]: 30
- Ryegrass, Italian plant response rating (0 to 100 scale, 0 is no effect, 100 is complete control) [6]: 70
- Plant response rating, Galium [7, 17]: 40
- Plant response rating, Galium [7, 18]: 60
- Plant response rating, Kochia [8, 17]: 20
- Plant response rating, Kochia [8, 18]: 50
- Plant response rating, Barnyardgrass [9, 17]: 90
- Plant response rating, Barnyardgrass [9, 18]: 90
- Plant response rating, Blackgrass [10, 17]: 60
- Plant response rating, Blackgrass [10, 18]: 80
- Plant response rating, Corn [11, 17]: 20
- Plant response rating, Corn [11, 18]: 60
- Plant response rating, Foxtail, Giant [12, 17]: 90
- Plant response rating, Foxtail, Giant [12, 18]: 90
- Plant response rating, Pigweed [13, 17]: 0
- Plant response rating, Pigweed [13, 18]: 50
- Plant response rating, Ragweed [14, 17]: 30
- Plant response rating, Ragweed [14, 18]: 60
- Plant response rating, Ryegrass, Italian [15, 17]: 40
- Plant response rating, Ryegrass, Italian [15, 18]: 60
- Plant response rating, Wheat [16, 17]: 30
- Plant response rating, Wheat [16, 18]: 70

Structure (SMILES): CN1CC(c2cccc(C(F)(F)F)c2)C(C(=O)Nc2cccc(C#N)c2F)C1=O (stereo not drawn) [Compound 576]
- Plant response rating, Kochia [1]: 20
- Kochia plant response rating (0 to 100 scale, 0 is no effect, 100 is complete control) [1]: 90
- Plant response rating, Barnyardgrass [2]: 90
- Barnyardgrass plant response rating (0 to 100 scale, 0 is no effect, 100 is complete control) [2]: 90
- Plant response rating, Foxtail, Giant [3]: 90
- Foxtail, Giant plant response rating (0 to 100 scale, 0 is no effect, 100 is complete control) [3]: 90
- Plant response rating, Pigweed [4]: 20
- Pigweed plant response rating (0 to 100 scale, 0 is no effect, 100 is complete control) [4]: 80
- Plant response rating, Ragweed [5]: 20
- Ragweed plant response rating (0 to 100 scale, 0 is no effect, 100 is complete control) [5]: 60
- Plant response rating, Ryegrass, Italian [6]: 20
- Ryegrass, Italian plant response rating (0 to 100 scale, 0 is no effect, 100 is complete control) [6]: 30
- Plant response rating, Galium [7, 17]: 50
- Plant response rating, Galium [7, 18]: 60
- Plant response rating, Kochia [8, 17]: 30
- Plant response rating, Kochia [8, 18]: 60
- Plant response rating, Barnyardgrass [9, 17]: 90
- Plant response rating, Barnyardgrass [9, 18]: 90
- Plant response rating, Blackgrass [10, 17]: 50
- Plant response rating, Blackgrass [10, 18]: 50
- Plant response rating, Corn [11, 17]: 80
- Plant response rating, Corn [11, 18]: 80
- Plant response rating, Foxtail, Giant [12, 17]: 90
- Plant response rating, Foxtail, Giant [12, 18]: 90
- Plant response rating, Pigweed [13, 17]: 0
- Plant response rating, Pigweed [13, 18]: 50
- Plant response rating, Ragweed [14, 17]: 30
- Plant response rating, Ragweed [14, 18]: 50
- Plant response rating, Ryegrass, Italian [15, 17]: 30
- Plant response rating, Ryegrass, Italian [15, 18]: 60
- Plant response rating, Wheat [16, 17]: 60
- Plant response rating, Wheat [16, 18]: 70
